Data as given in patent US12528777B2, “Quinazolinones derivatives for treatment of non-alcoholic fatty liver disease, preparation and use thereof” (Council of Scientific and Industrial Research, priority 2020, dated 2026).
“Also recorded” adds a separate entry of the source.

Experiments:
Assay type in all cases: cell-based
ATGL [1] = assay: Reversal of ATGL decrease in COP1 overexpressing HepG2 cells; settings: myc-DDK-COP1, 5 μM, 24 hours
Method: COP1 is an E3 ubiquitin ligase with ATGL as one of its targets for ubiquitination and subsequent proteasomal degradation by 26S proteasome. Therefore, it is only legit for ATGL levels to decrease upon COP1 overexpression. To this end, HepG2 cells were transfected with 500 ng of myc-DDK-COP1 plasmid using Lipofectamine 2000 and treated with 5 μM of the compounds 9 and 10 for 24 hours. 48 hours post transfection, cells were harvested and western blot was carried out.

HepG2 cells = assay: Confocal microscopy: lipid droplets in oleate induced HepG2 cells; set-up: key to Reduction in Lipid Droplets: + = slight or in insignificant; ++ = Moderate; +++ and ++++ = active; +++ and ++++ = active; +++++ = very active
How it was run: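 HepG2 cells were loaded with 250 μM oleate and given compound in DMSO (10 μM screen; 10 nM–5 μM dose series) for 24 h; BSA as negative control. Lipid droplets stained with BODIPY/Hoechst, imaged confocally; mean droplets per cell counted over ~20 cells versus oleate-only cells.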

ATGL [2] = assay: Immunoprecipitation assay of ATGL ubiquitination in myc-ATGL HepG2 cells; settings: 5 μM, 24 hours, MG-132, poly ubiquitin smear
Method: To this end, an immunoprecipitation assay was performed wherein HepG2 cells overexpressing myc-ATGL were transfected with HA-Ubiquitin and treated with 5 μM of the compounds 9, 10, 107, 215, 219 and 238. MG-132, a proteasomal inhibitor, was added 4 hours before harvesting the cells. Immune complexes were pulled down with anti-myc antibody and immunoblot was done using anti-HA antibody. The resultant smears on the blot reflect the ubiquitination status of ATGL.
For checking the change in the ubiquitination status of ATGL on compound treatment, Myc-ATGL expressing HepG2 cells (ATGL overexpressing cell line) was transfected with 2 μg of a plasmid harboring the HA tagged ubiquitin gene using Lipofectamine 2000 reagent (Invitrogen) in OptiMEM media (HiMedia). Fresh DMEM complete media was added after 8-10 hours of transfection. After roughly 24 hours of transfection, 5 μM of the compounds 9, 10 and 107 was added and cells were harvested post 24 hours of treatment. 4 hours prior to cell harvesting, 10 μM of proteasomal inhibitor MG132 (Calbiochem, Merck Millipore) was added to the cells. Proteins were isolated from the cells and protein concentration was estimated as described previously. 30 μl of PureProteome Protein A/G Mix Magnetic Beads (Merck Millipore) was taken in a 1.5 ml microcentrifuge tube, placed in a Magna Rack (Merck Millipore) and allowed to adhere to the side of the tube. 200 μg of protein was used for immunoprecipitation reaction in a reaction volume of 1 ml. 2 μl of anti-Myc primary antibody (Cell Signaling Technology) was added and the tube was incubated overnight at 4° C. in a rotary shaker. The next day, the tube was placed back in the Magna Rack and the beads were allowed to attach to the tube. To remove non-specific and unattached reactants, 1×PBS and 0.1% Triton-X was used for washing. 2× loading dye and Lysis Buffer was added and heated at 95° C. for 10 minutes to allow the immune complex to dislodge from the magnetic beads. Western Blot was performed subsequently as described before with anti-HA primary antibody for immunoblotting (Cell Signaling Technology). The activity trends of the synthesized compounds are disclosed in Table-5.

ATGL [3] = assay: Western blot of ATGL level in HepG2 cells; set-up: key to Increase in ATGL level: + = slight or in insignificant; ++ = Moderate; +++ and ++++ = active; +++ and ++++ = active; +++++ = very active; settings: HepG2 cells, western blot, score
How it was run: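 HepG2 cells were treated with compound 24 h (10 μM screen; 50 nM–5 μM dose series) and lysed. 30 μg protein was western blotted for ATGL, with actin as loading reference. ATGL increase was expressed as percent of the 1.6-fold siCOP1 maximum and plotted against log concentration for EC50.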

COP1 = COP1 (Homo sapiens, UniProt Q8NHY2); assay: Immunoprecipitation assay of COP1 autoubiquitination in HepG2 cells; settings: 5 μM, 24 hours, MG-132
COP1, sequence (Q8NHY2 whole entry): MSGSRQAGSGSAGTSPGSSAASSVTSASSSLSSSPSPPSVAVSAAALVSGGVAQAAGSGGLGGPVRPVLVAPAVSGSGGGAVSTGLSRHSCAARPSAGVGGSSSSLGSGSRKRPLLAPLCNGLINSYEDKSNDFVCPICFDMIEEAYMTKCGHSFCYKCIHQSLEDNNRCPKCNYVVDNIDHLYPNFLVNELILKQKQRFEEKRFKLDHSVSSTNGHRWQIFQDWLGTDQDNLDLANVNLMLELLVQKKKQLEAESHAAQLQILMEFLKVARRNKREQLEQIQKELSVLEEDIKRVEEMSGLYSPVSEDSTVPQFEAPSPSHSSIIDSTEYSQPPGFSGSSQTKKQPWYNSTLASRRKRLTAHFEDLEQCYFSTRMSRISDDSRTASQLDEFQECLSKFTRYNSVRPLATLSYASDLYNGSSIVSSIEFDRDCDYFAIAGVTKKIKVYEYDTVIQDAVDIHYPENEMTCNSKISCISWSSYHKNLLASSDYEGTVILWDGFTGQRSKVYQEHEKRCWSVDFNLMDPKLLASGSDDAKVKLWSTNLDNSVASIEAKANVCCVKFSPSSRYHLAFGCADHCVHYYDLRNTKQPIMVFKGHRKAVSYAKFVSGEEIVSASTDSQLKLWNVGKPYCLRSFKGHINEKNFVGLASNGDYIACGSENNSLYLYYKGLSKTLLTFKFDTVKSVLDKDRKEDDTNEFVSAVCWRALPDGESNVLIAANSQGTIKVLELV
Method: COP1 is capable of auto ubiquitinating its own self and getting degraded via the proteasomal pathway. To probe into this, HepG2 cells were co-transfected with HA tagged Ubiquitin and myc-flag tagged COP1. The transfected cells were treated with 5 μM of compounds 9, 10, 107 and 238 for 24 hours. MG-132, a proteasomal inhibitor, was added 4 hours before harvesting the cells. Immune complexes were pulled down with anti-myc antibody and immunoblot was done using anti-HA antibody. […] Thus, the compounds of the present disclosure could be potent therapeutic targets by being able to block the proteasomal degradation of ATGL which would then be able to carry out its lipolytic action and reverse the symptoms of steatosis.
For checking the autoubiquitination status of COP1, HepG2 cells were cotransfected with 2 μg each of Myc-DDK-COP1 and HA-Ub plasmids using Lipofectamine 2000 reagent (Invitrogen) in OptiMEM media (HiMedia). The rest of the procedure is similar to that done for Myc-ATGL.

SMILES: COCCn1cnc2ccc(NC(=O)Nc3ccc(C(C)=O)cc3)cc2c1=O [Compound 10, 1-(4-acetylphenyl)-3-(3-(2-methoxyethyl)-4-oxo-3,4-dihydroquinazolin-6-yl)urea]
- Restoration of ATGL level upon COP1 overexpression (ATGL [1]): could restore the reduced ATGL level; also recorded: could restore ATGL to its normal level
- Number of lipid droplets (HepG2 cells; HepG2 cells, 250 μM oleate induction): decrease in the number of lipid droplets
- Reduction in Lipid Droplets (HepG2 cells; oleate induced HepG2 cells, score): ++++
- ATGL ubiquitination in HepG2 cells (ATGL [2]): reduction, however, could not be seen
- Increase in ATGL level (ATGL [3]): ++++
- COP1 autoubiquitination in HepG2 cells (COP1): markedly reduce COP1's auto ubiquitination property
